Assay results published in PubChem BioAssay (NCI).
“And” between values parts separate entries of the source, which are not always exact repeats. Identical values can stand only once.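 Values below derive from 48-hour exposures of cells grown in 96-well plates, with endpoints linearly interpolated between the two concentrations bracketing the appropriate inhibition level. GI50 is the concentration that inhibits growth by half. TGI marks complete inhibition of growth.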

Experiments:
Experiment in all cases: inhibition of tumour cell growth, NCI panel, 48 h
SK-MEL-28 melanoma = tested on: SK-MEL-28 melanoma
TK-10 renal = tested on: TK-10 renal
CAKI-1 renal = tested on: CAKI-1 renal
CCRF-CEM leukemia = tested on: CCRF-CEM leukemia
K-562 leukemia = tested on: K-562 leukemia
UO-31 renal = tested on: UO-31 renal
HCC-2998 colon = tested on: HCC-2998 colon
HL-60(TB) leukemia = tested on: HL-60(TB) leukemia
HCT-15 colon = tested on: HCT-15 colon
SK-MEL-5 melanoma = tested on: SK-MEL-5 melanoma

SMILES	TGI (SK-MEL-28 melanoma)	TGI (TK-10 renal)	TGI (CAKI-1 renal)	TGI (CCRF-CEM leukemia) [µM]	TGI (K-562 leukemia)	TGI (UO-31 renal)	TGI (HCC-2998 colon)	TGI (HL-60(TB) leukemia)	TGI (HCT-15 colon)	TGI (SK-MEL-5 melanoma)	GI50 (SK-MEL-28 melanoma) [µM]	GI50 (TK-10 renal) [µM]	GI50 (CAKI-1 renal) [µM]	GI50 (CCRF-CEM leukemia) [µM]	GI50 (K-562 leukemia)	GI50 (UO-31 renal) [µM]	GI50 (HCC-2998 colon) [µM]	GI50 (HL-60(TB) leukemia) [µM]	GI50 (HCT-15 colon) [µM]	GI50 (SK-MEL-5 melanoma)
CN(C(=O)/C=C/c1ccccc1)C1C2CN3CCC(O2)C13 (stereo not given)	> 100 µM	> 100 µM	> 100 µM	> 100	> 100 µM	> 100 µM	> 100 µM	> 100 µM	> 100 µM	> 100 µM										
O=C(/C=C/c1ccccc1)Oc1cccc2cccnc12	> 86.3 µM	> 100 µM	83.2 µM	> 29.3	> 100 µM	> 73 µM	> 100 µM	> 28.1 µM	26.2 µM	24 µM										
Nc1nc2ccc(-c3nc4ccc5[nH]ncc5c4c4c3CCC4)cc2s1	7.89 µM	9.73 µM	5.51 µM	50	33.2 µM	3.58 µM	9.11 µM	7.93 µM	7.66 µM	1.68 µM	0.638	1.11	0.315	0.225	0.115 µM	0.741	1.47	0.168	0.193	0.238 µM
COC(=O)C1=CO[C@@H](OC2CC(CO)C(O)C(O)C2O)[C@@H]2[C@@H](C)[C@@H](OC(=O)/C=C/c3ccccc3)[C@@H](O)[C@H]12 (stereo not given in full) (tested in a mixture with another compound)	> 100 µM	> 100 µM	> 100 µM	> 100	> 100 µM	> 100 µM	> 100 µM	> 100 µM		> 100 µM										
O=C1/C(=C/c2ccc([N+](=O)[O-])cc2)CN(C(=O)CCN2CCC(=NO)CC2)C/C1=C\c1ccc([N+](=O)[O-])cc1	4.72 µM	6.14 µM	2.39 µM	9.93	> 60.9 µM	2.55 µM	2.62 µM	6.88 µM	3.9 µM	4.38 µM	1.93	2.01	0.756	0.534	0.216 µM	1.14	1	1.85	0.771	1.99 µM
O=C(O)CCNS(=O)(=O)c1ccc(NC(=O)c2ccccc2)cc1	> 100 µM	> 100 µM	> 100 µM	> 100	> 100 µM	> 100 µM	> 100 µM	> 100 µM	> 100 µM	> 100 µM										
O=C(NCC1CC1)c1ccc(-c2cccc(C(=O)NC3CC3)c2)cc1	> 25 µM	> 25 µM	> 25 µM	> 25	> 25 µM	> 25 µM	> 25 µM	> 25 µM	> 25 µM	> 25 µM	> 25	> 25	> 25	> 25	> 25 µM	> 25	> 25	> 25	> 25	> 25 µM
N#C[Se]Cc1cc(-c2ccccc2)n(-c2ccc(S(N)(=O)=O)cc2)n1	1.34 µM	7.83 µM	5.24 µM	> 27.3	9.88 µM	5.96 µM	4.94 µM	3.87 µM	5.55 µM		0.359	2.35	2.07	0.914	1.15 µM	1.49	2.24	0.939	2.05	
Nc1ncn([C@@H]2S[C@H](CO)[C@@H](O)[C@@H]2F)c(=O)n1	> 100 µM	> 100 µM	> 100 µM	> 100	> 100 µM	> 100 µM	> 100 µM	> 31.5 µM	> 100 µM	> 100 µM	> 100	> 100	0.322	0.0399	1.81 µM	0.372	1.84	0.571	2.7	0.827 µM
c1cc[c]([Sn][c]2ccccc2)cc1	36 µM	51.2 µM	> 92.3 µM	62.7	69 µM	38.5 µM	18.3 µM	41.9 µM	41 µM	31.9 µM	14.5	20.1	24	21.9	25.2 µM	19.4	13.8	20.5	20.5	16.8 µM
CC1CC(C)CC(C)C(O)/C(C#N)=C/C=C/CC(C2CCCC2C(=O)O)OC(=O)CC(O)C(C)C1 (stereo not given)	0.0847 µM and 0.0392 µM	0.089 µM and 0.432 µM	0.254 µM and 0.221 µM		0.066 µM and 0.256 µM	0.15 µM and 0.0217 µM	0.102 µM and 0.0726 µM	0.0499 µM and 0.161 µM	0.114 µM and 0.104 µM	0.122 µM and 0.0932 µM	0.0262		0.0166	0.0241	0.0263 µM and < 0.0121 µM	0.027	0.0297	0.0166	0.0229	0.0282 µM and 0.0232 µM
c1ccc(-c2nc(-c3ccccn3)nc(-c3ccccn3)n2)nc1	> 100 µM	> 100 µM	34.3 µM	> 100	> 100 µM	> 100 µM	> 100 µM	> 100 µM	> 100 µM	47.1 µM	71	45.5	3.88	14.4	19.4 µM	3.18	75.5	38.2	5.71	17.2 µM
O=c1oc2ccccc2c2c1Sc1ccccc1N2	> 100 µM	> 100 µM	> 100 µM	> 100	> 100 µM	> 100 µM	> 100 µM	> 100 µM	> 100 µM	> 100 µM										
CCCN1C(=O)NC(=O)C(CC)(N2C(=O)c3c(F)c(F)c(F)c(F)c3C2=O)C1=O (stereo not given)	3.22 µM	6 µM	3.75 µM	3.24	4.55 µM	4.32 µM	3.93 µM	4.33 µM	6.82 µM	7.71 µM	1.71	2.29	1.86	1.1	1.73 µM	1.63	1.8	1.97	1.85	2.37 µM
